Where a name gives a salt, the structure may show the parent alone.
What follows are compounds tested against Cdc7/ASK (Homo sapiens, UniProt O00311) (assay: Cdc7 Biochemical Assay Method 1: 384 well ELISA, whole protein substrate MCM2, antibody against Phospho MCM2 (S53)). Conditions: 2 μM ATP, read-out: Biochemical Method 1 (pIC50) (converted).
Design: purchased
Protocol: This protocol describes a method for assaying Cdc7/ASK for activity. The assay is a 384 well ELISA assay, utilising a whole protein substrate (MCM2) and an antibody against Phospho MCM2 (S53). This site is thought to be specific to Cdc7/ASK phosphorylation and the assay has been validated using knockout mutants. Reagents • TBS: 25 mM Tris pH 7.2, 150 mM NaCl. (Dilute 10× stock by 1:10). • Wash Buffer: TBS+0.05% Tween 20. (Add 100 mL 1 M Tris pH 7.2, 120 mL 5 M NaCl and 2 mL 100% Tween 20 per 4 L). • Kinase Reaction Buffer: 50 mM Tris-HCl pH 8.5, 10 mM MgCl2, 1 mM DTT. (Dilute 10× stock by 1:10 and add 100 μL 1M DTT per 100 mL prior to assay). • Diethanolamine Buffer: 1 M diethanolamine pH 9.8, 0.5 mM MgCl2. • Stop Solution: 1 M NaOH. • MCM2 was expressed and purified in-house and used in the assay at a final assay concentration of 436 ng/well. • Cdc7/ASK is purchased from commercial suppliers and used in the assay at a final assay concentration of 37.97 ng/well or 20.63 nM. • ATP used as a final assay concentration of 2 μM. • Primary Antibody: Rabbit anti-Phospho MCM2 (S53 Antibody (BL3353)), is purchased from commercial suppliers at 0.2 mg/mL and used at a final assay concentration by diluting 1:800 in TBS. • Secondary Antibody: Anti-Rabbit/AP Antibody is supplied is purchased from commercial suppliers at 1 mg/mL and used at a final assay concentration by diluting 1:2000 in TBS. • Development Reagent: Dissolve one 20 mg PNPP tablet (Sigma, product […], 20 mg per tablet) per 20 mL diethanolamine Buffer (or one 5 mg PNPP tablet per 5 mL diethanolamine buffer). Cover in foil and leave shaking on a roller shaker at room temperature for up to an hour to dissolve. Methods • 1. Add 20 μL 1× working stock of Substrate (MCM2) in TBS to all wells of a clear, 384 well, Nickel-chelate microplate to give a final concentration of […]. Incubate at room temperature for at least 1 hour. Plates can be pre-coated for 1 hour and stored at 4° C. for up to 8 days. • 2. Wash with TBS+0.05% Tween 20 (80 μL×3). • 3. Add 2 μL 10× test compounds, including the positive control, in 40% DMSO/water to 'test' wells. Add 2 μL 40% DMSO/water to 'control' and 'blank' wells. The final DMSO concentration will be 4%. • 4. Add 13 μL CDC7/ASK Kinase (1.5× stock) in Kinase Reaction Buffer to 'test' and 'control' wells to give a final concentration of […]. Add 13 μL Kinase Reaction Buffer to 'blank' wells. • 5. Add 5 μL ATP (4× stock) in Kinase Reaction Buffer to all wells to give a final concentration of 2 μM. • 6. Incubate at room temperature for 90 minutes. • 7. Wash with TBS+0.05% Tween 20 (80 μL×3). • 8. Add 20 μL 1× working solution of Primary Antibody in TBS to all wells. Incubate at room temperature for 30 minutes. • 9. Wash with TBS+0.05% Tween 20 (80 μL×3). • 10. Add 20 μL 1× working solution of Secondary Antibody in TBS to all wells. Incubate at room temperature for 30 minutes. • 11. Wash with TBS+0.05% Tween 20 (80 μL×3). • 12. Add 20 μL 1× Development Reagent to all wells. • 13. Incubate at room temperature for 2 hours. Stop the reaction by adding 20 μL Stop Solution to all wells and record Absorbance on a Pherastar plate reader. Percentage inhibition values were calculated from absorbance values, using the no compound (DMSO) and no enzyme control values as 0% and 100% inhibition, respectively. IC50 determination was performed with ExcelFit software (IDBS) using curve fit 205. Z' factors were determined for each plate tested and were all above 0.5. Method 2

Sequence of Cdc7/ASK (O00311 whole entry): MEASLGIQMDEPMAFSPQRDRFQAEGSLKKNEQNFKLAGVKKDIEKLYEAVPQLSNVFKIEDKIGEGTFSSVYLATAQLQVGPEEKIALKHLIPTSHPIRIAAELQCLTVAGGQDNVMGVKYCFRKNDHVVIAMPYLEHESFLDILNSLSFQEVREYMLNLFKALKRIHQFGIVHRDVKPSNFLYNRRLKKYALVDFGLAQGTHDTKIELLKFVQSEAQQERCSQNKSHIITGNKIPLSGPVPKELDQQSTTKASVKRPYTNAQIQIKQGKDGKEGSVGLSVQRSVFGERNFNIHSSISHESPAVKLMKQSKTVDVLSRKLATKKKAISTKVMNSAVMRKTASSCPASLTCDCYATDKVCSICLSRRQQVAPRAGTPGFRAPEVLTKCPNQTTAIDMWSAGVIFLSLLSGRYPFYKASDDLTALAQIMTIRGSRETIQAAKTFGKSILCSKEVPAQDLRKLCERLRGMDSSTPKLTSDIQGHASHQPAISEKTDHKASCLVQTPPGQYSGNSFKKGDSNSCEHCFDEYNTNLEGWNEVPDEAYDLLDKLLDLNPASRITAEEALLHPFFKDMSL
Sequence of Cdc7/ASK (Q9UBU7 whole entry partner): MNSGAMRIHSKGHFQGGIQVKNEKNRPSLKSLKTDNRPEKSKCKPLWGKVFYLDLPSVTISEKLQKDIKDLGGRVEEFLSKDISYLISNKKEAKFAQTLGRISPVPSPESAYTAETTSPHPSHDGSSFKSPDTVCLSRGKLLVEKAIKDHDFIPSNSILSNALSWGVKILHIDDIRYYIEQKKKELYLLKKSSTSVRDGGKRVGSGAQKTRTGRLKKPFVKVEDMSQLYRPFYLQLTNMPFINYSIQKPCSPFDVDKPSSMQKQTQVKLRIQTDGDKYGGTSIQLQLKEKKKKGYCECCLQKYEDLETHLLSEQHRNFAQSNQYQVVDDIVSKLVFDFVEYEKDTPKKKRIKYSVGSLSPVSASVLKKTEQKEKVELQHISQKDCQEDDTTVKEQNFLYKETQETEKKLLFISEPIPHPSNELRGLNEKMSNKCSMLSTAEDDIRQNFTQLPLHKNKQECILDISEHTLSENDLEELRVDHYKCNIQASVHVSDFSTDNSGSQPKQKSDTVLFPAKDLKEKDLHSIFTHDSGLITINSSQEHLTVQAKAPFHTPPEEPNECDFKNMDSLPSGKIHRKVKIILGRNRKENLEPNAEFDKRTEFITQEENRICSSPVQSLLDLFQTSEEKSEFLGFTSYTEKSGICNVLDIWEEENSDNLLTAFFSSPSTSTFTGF

| Structure (SMILES) | IC50 [nM] |
| --- | --- |
| O=C(c1csnn1)N1CCC(c2nc(-c3ccncc3)[nH]c(=O)c2Cl)CC1 [Compound 59] | 2.57 |
| COc1ccc(S(N)(=O)=O)cc1C(=O)N1CCC(c2nc(-c3ccncc3)[nH]c(=O)c2Cl)CC1 [Compound 61] | 6.17 |
| CN(c1ccc(C(=O)N2CCC(c3nc(-c4ccncc4)[nH]c(=O)c3Cl)CC2)cc1)S(C)(=O)=O [Compound 65] | 5.89 |
| O=C(c1ccccc1Cl)N1CCC(c2nc(-c3ccncc3)[nH]c(=O)c2Cl)CC1 [Compound 66] | 14.8 |
| Cc1ncsc1C(=O)N1CCC(c2nc(-c3ccncc3)[nH]c(=O)c2Cl)CC1 [Compound 67] | 1.55 |
| O=C(C1CC1(F)F)N1CCC(c2nc(-c3ccncc3)[nH]c(=O)c2Cl)CC1 (stereo not shown) [Compound 70] | 15.8 |
| C[C@H](NC(=O)OC(C)(C)C)C(=O)N1CCC(c2nc(-c3ccncc3)[nH]c(=O)c2Cl)CC1 [Compound 71] | 14.5 |
| Cc1cccc(C(=O)N2CCC(c3nc(-c4ccncc4)[nH]c(=O)c3Cl)CC2)c1 [Compound 72] | 6.92 |
| CS(=O)(=O)Cc1ccc(C(=O)N2CCC(c3nc(-c4ccncc4)[nH]c(=O)c3Cl)CC2)cc1 [Compound 73] | 5.13 |
| CC(N)C(=O)N1CCC(c2nc(-c3ccncc3)[nH]c(=O)c2Cl)CC1 (stereo not shown) [Compound 75] | 9.12 |
| CN1CCC(c2nc(-c3ccncc3)[nH]c(=O)c2Cl)CC1 [Compound 79] | 10.2 |
| CC(C)CCN1CCN(c2nc(-c3ccncc3)[nH]c(=O)c2Cl)CC1 [Compound 83] | 166 |
| CC(C)N1CCN(c2nc(-c3ccncc3)[nH]c(=O)c2Cl)CC1 [Compound 86] | 138 |
| CC1CN(c2nc(-c3ccncc3)[nH]c(=O)c2Cl)CC(C)O1 (stereo not shown) [Compound 92] | 83.2 |
| CC(C)CC1CN(c2nc(-c3ccncc3)[nH]c(=O)c2Cl)CCO1 (stereo not shown) [Compound 93] | 407 |
| NC(=O)C1CN(c2nc(-c3ccncc3)[nH]c(=O)c2Cl)CCO1 (stereo not shown) [Compound 96] | 42.7 |
| CC(C)(C)OC(=O)NCC1CN(c2nc(-c3ccncc3)[nH]c(=O)c2Cl)CCO1 (stereo not shown) [Compound 98] | 85.1 |
| COCCC1CN(c2nc(-c3ccncc3)[nH]c(=O)c2Cl)CCO1 (stereo not shown) [Compound 99] | 85.1 |

| Structure (SMILES) | IC50 [nM] |
| --- | --- |
| NC(=O)C1CCN(c2nc(-c3ccncc3)[nH]c(=O)c2Cl)CC1 [Compound 100] | 12 |
| CC1CN(c2nc(-c3ccncc3)[nH]c(=O)c2Cl)CC(C)N1 (stereo not shown) [Compound 108] | 174 |
| COc1cccc(N2CCN(c3nc(-c4ccncc4)[nH]c(=O)c3Cl)CC2)c1 [Compound 113] | 28.8 |
| O=c1[nH]c(-c2ccncc2)nc(N2CCCNCC2)c1Cl [Compound 115] | 229 |
| O=C1CCN(c2nc(-c3ccncc3)[nH]c(=O)c2Cl)CCN1 [Compound 117] | 5.25 |
| O=CN1CCCN(c2nc(-c3ccncc3)[nH]c(=O)c2Cl)CC1 [Compound 119] | 3.55 |
| O=c1[nH]c(-c2ccncc2)nc(N2CCCN3CCC[C@@H]3C2)c1Cl [Compound 120] | 245 |
| O=c1[nH]c(-c2ccncc2)nc(N2CCC3(COC3)C2)c1Cl [Compound 126] | 53.7 |
| CC(C)(C)N1CCCN(c2nc(-c3ccncc3)[nH]c(=O)c2Cl)CC1 [Compound 137] | 589 |
| O=C1CN(c2nc(-c3ccncc3)[nH]c(=O)c2Cl)CCCN1 [Compound 141] | 145 |
| O=c1[nH]c(-c2ccncc2)nc(N2CCN3CC(F)(F)C[C@H]3C2)c1Cl [Compound 149] | 13.2 |
| CC(C)(C)N1CCN(c2nc(-c3ccncc3)[nH]c(=O)c2Cl)CC1 [Compound 155] | 977 |
| COC(=O)[C@@H]1CN(c2nc(-c3ccncc3)[nH]c(=O)c2Cl)CCN1C(=O)OC(C)(C)C [Compound 162] | 155 |
| COC(=O)[C@@H]1CN(c2nc(-c3ccncc3)[nH]c(=O)c2Cl)CCN1 [Compound 163, methyl (2S)-4-[5-chloro-6-oxo-2-(4-pyridyl)-1H-pyrimidin-4-yl]piperazine-2-carboxylate hydrochloride] | 67.6 |
| O=c1[nH]c(-c2ccncc2)nc(N2CCN[C@H](Cc3ccccc3)C2)c1Cl [Compound 165] | 126 |
| C[C@@H]1CN[C@@H](C)CN1c1nc(-c2ccncc2)[nH]c(=O)c1Cl [Compound 173] | 85.1 |
| O=c1[nH]c(-c2ccncc2)nc(N2CCN[C@H](CCO)C2)c1Cl [Compound 174] | 30.9 |
| O=c1[nH]c(-c2ccnc(O)c2)nc(C2CCOCC2)c1Cl [Compound 402, 5-chloro-2-(2-hydroxy-4-pyridyl)-4-tetrahydropyran-4-yl-1H-pyrimidin-6-one] | 112 |

Results, then the compound that gave them:

| IC50 [nM] | Structure (SMILES) |
| --- | --- |
| 1.91 | CC(=O)c1ccc(C(=O)N2CCC(c3nc(-c4ccncc4)[nH]c(=O)c3Cl)CC2)cc1 [Compound 60] |
| 12 | CC(=O)Nc1ccc(C(=O)N2CCC(c3nc(-c4ccncc4)[nH]c(=O)c3Cl)CC2)cc1 [Compound 62] |
| 3.24 | CC(C)Oc1ccc(C(=O)N2CCC(c3nc(-c4ccncc4)[nH]c(=O)c3Cl)CC2)cc1 [Compound 63] |
| 3.98 | C[C@@H](NC(=O)OC(C)(C)C)C(=O)N1CCC(c2nc(-c3ccncc3)[nH]c(=O)c2Cl)CC1 [Compound 64] |
| 2.69 | O=C(c1cn[nH]c1)N1CCC(c2nc(-c3ccncc3)[nH]c(=O)c2Cl)CC1 [Compound 68] |
| 3.55 | Cc1cc(C(=O)N2CCC(c3nc(-c4ccncc4)[nH]c(=O)c3Cl)CC2)no1 [Compound 69] |
| 245 | CCCC(NC(=O)OC(C)(C)C)C(=O)N1CCC(c2nc(-c3ccncc3)[nH]c(=O)c2Cl)CC1 (stereo not shown) [Compound 74] |
| 123 | O=c1[nH]c(-c2ccncc2)nc(N2CCN(Cc3cccc(Cl)c3)CC2)c1Cl [Compound 80] |
| 67.6 | CCCC1COCCN1c1nc(-c2ccncc2)[nH]c(=O)c1Cl (stereo not shown) [Compound 95] |
| 200 | CN(C)C(=O)C1CN(c2nc(-c3ccncc3)[nH]c(=O)c2Cl)CCO1 (stereo not shown) [Compound 97] |
| 52.5 | O=c1[nH]c(-c2ccncc2)nc(N2CCC(Cc3ccccc3)CC2)c1Cl [Compound 102] |
| 661 | CN(C)C(=O)CN1CCN(c2nc(-c3ccncc3)[nH]c(=O)c2Cl)CC1 [Compound 110] |
| 380 | NC(=O)[C@H]1CCCN1c1nc(-c2ccncc2)[nH]c(=O)c1Cl [Compound 118] |
| 263 | O=c1[nH]c(-c2ccncc2)nc(N2CC(CO)C2)c1Cl [Compound 124] |
| 56.2 | O=c1[nH]c(-c2ccncc2)nc(N2CC[C@@H](F)C2)c1Cl [Compound 133] |
| 100 | O=c1[nH]c(-c2ccncc2)nc(N2CCC(O)C2)c1Cl (stereo not shown) [Compound 138] |
| 33.9 | N#CCN1CCN(c2nc(-c3ccncc3)[nH]c(=O)c2Cl)CC1 [Compound 148] |
| 12.6 | C[C@H]1CN(c2nc(-c3ccncc3)[nH]c(=O)c2Cl)[C@@H](C)CN1 [Compound 172] |
| 57.5 | O=c1[nH]c(-c2ccncc2)nc(N2CCN[C@@H](CCO)C2)c1Cl [Compound 175] |
| 4.27 | O=c1[nH]c(-c2ccncc2)nc(N2CCNC(c3cccc(O)c3)C2)c1Cl (stereo not shown) [Compound 178] |
| 23.4 | COc1cccc(C2CN(c3nc(-c4ccncc4)[nH]c(=O)c3Cl)CCN2)c1 (stereo not shown) [Compound 179] |
| 25.7 | N#Cc1c(C2CCOCC2)nc(-c2ccncc2)[nH]c1=O [Compound 403, 6-oxo-2-(4-pyridyl)-4-tetrahydropyran-4-yl-1H-pyrimidine-5-carbonitrile] |
